Experimental data taken from ChEMBL document CHEMBL3045272, “Synthesis and fungicidal activities of novel bis(trifluoromethyl)phenyl-based strobilurins” (J Agric Food Chem, 2008).
Converted amounts (≈) assume the structure as drawn.

Key:
[1] = test system: Blumeria graminis; assay: Fungicidal activity against Blumeria graminis infected compound pre-treated wheat plants assessed as disease preventive activity at 100 ppm measured after 1 or 2 weeks; assay type: functional
[2] = test system: Blumeria graminis; assay: Fungicidal activity against Blumeria graminis infected compound pre-treated wheat plants assessed as disease preventive activity at 500 ppm measured after 1 or 2 weeks; assay type: functional
[3] = test system: Blumeria graminis; assay: Fungicidal activity against Blumeria graminis infected compound pre-treated wheat plants assessed as disease preventive activity at 6.2 ppm measured after 1 or 2 weeks; assay type: functional
[4] = test system: Blumeria graminis; assay: Fungicidal activity against Blumeria graminis infected compound pre-treated wheat plants assessed as disease preventive activity at 1.5 ppm measured after 1 or 2 weeks; assay type: functional
[5] = test system: Blumeria graminis; assay: Fungicidal activity against Blumeria graminis infected compound pre-treated wheat plants assessed as disease preventive activity at 3.1 ppm measured after 1 or 2 weeks; assay type: functional
[6] = test system: Podosphaera fuliginea; assay: Fungicidal activity against Podosphaera fuliginea infected compound pre-treated cucumber plants assessed as disease preventive activity at 3.12 mg/L measured after 1 or 2 weeks; assay type: functional
[7] = test system: Blumeria graminis; assay: Fungicidal activity against Blumeria graminis infected compound pre-treated wheat plants assessed as disease preventive activity measured after 1 or 2 weeks; assay type: functional, organism-based
[8] = test system: Podosphaera fuliginea; assay: Fungicidal activity against Podosphaera fuliginea infected cucumber plants exposed to compound treatment 1 day post infection assessed as disease curative activity at 6.25 mg/L measured after 1 or 2 weeks; assay type: functional
[9] = test system: Blumeria graminis; assay: Fungicidal activity against Blumeria graminis infected wheat plants exposed to compound treatment 1 day post infection assessed as disease curative activity at 1.56 mg/L measured after 1 or 2 weeks; assay type: functional
[10] = test system: Blumeria graminis; assay: Fungicidal activity against Blumeria graminis infected wheat plants exposed to compound treatment 1 day post infection assessed as disease curative activity at 3.12 mg/L measured after 1 or 2 weeks; assay type: functional
[11] = test system: Blumeria graminis; assay: Fungicidal activity against Blumeria graminis infected wheat plants exposed to compound treatment 1 day post infection assessed as disease curative activity at 6.25 mg/L measured after 1 or 2 weeks; assay type: functional
[12] = test system: Podosphaera fuliginea; assay: Fungicidal activity against Podosphaera fuliginea infected cucumber plants exposed to compound treatment 1 day post infection assessed as disease curative activity measured after 1 or 2 weeks; assay type: functional, organism-based
[13] = test system: Podosphaera fuliginea; assay: Fungicidal activity against Podosphaera fuliginea infected compound pre-treated cucumber plants assessed as disease preventive activity at measured after 1 or 2 weeks; assay type: functional, organism-based
[14] = test system: Podosphaera fuliginea; assay: Fungicidal activity against Podosphaera fuliginea infected compound pre-treated cucumber plants assessed as disease preventive activity at 6.25 mg/L measured after 1 or 2 weeks; assay type: functional
[15] = test system: Podosphaera fuliginea; assay: Fungicidal activity against Podosphaera fuliginea infected cucumber plants exposed to compound treatment 1 day post infection assessed as disease curative activity at 1.56 mg/L measured after 1 or 2 weeks; assay type: functional
[16] = test system: Podosphaera fuliginea; assay: Fungicidal activity against Podosphaera fuliginea infected compound pre-treated cucumber plants assessed as disease preventive activity at 1.56 mg/L measured after 1 or 2 weeks; assay type: functional
[17] = test system: Blumeria graminis; assay: Fungicidal activity against Blumeria graminis infected wheat plants exposed to compound treatment 1 day post infection assessed as disease curative activity measured after 1 or 2 weeks; assay type: functional, organism-based
[18] = test system: Blumeria graminis; assay: Fungicidal activity against Blumeria graminis infected compound pre-treated wheat plants assessed as disease preventive activity at 0.78 mg/L measured after 1 or 2 weeks; assay type: functional
[19] = test system: Blumeria graminis; assay: Fungicidal activity against Blumeria graminis infected wheat plants exposed to compound treatment 1 day post infection assessed as disease curative activity at 0.78 mg/L measured after 1 or 2 weeks; assay type: functional
[20] = test system: Blumeria graminis; assay: Fungicidal activity against Blumeria graminis infected compound pre-treated wheat plants assessed as disease preventive activity at 1.56 mg/L measured after 1 or 2 weeks; assay type: functional
[21] = test system: Blumeria graminis; assay: Fungicidal activity against Blumeria graminis infected compound pre-treated wheat plants assessed as disease preventive activity at 3.12 mg/L measured after 1 or 2 weeks; assay type: functional
[22] = test system: Blumeria graminis; assay: Fungicidal activity against Blumeria graminis infected compound pre-treated wheat plants assessed as disease preventive activity at 6.25 mg/L measured after 1 or 2 weeks; assay type: functional
[23] = test system: Podosphaera fuliginea; assay: Fungicidal activity against Podosphaera fuliginea infected cucumber plants exposed to compound treatment 1 day post infection assessed as disease curative activity at 3.12 mg/L measured after 1 or 2 weeks; assay type: functional
[24] = test system: Podosphaera fuliginea; assay: Fungicidal activity against Podosphaera fuliginea infected compound pre-treated cucumber plants assessed as disease preventive activity at 0.78 mg/L measured after 1 or 2 weeks; assay type: functional
[25] = test system: Podosphaera fuliginea; assay: Fungicidal activity against Podosphaera fuliginea infected cucumber plants exposed to compound treatment 1 day post infection assessed as disease curative activity at 0.78 mg/L measured after 1 or 2 weeks; assay type: functional

CCO/C(=N\OCc1ccccc1/C(=C\OC)C(=O)OC)c1cc(C(F)(F)F)cc(C(F)(F)F)c1
Activity [1]: 100% | Activity [2]: 100% | Activity [3]: 90% | Activity [4]: 35% | Activity [5]: 60%

CNC(=O)/C(=N/OC)c1ccccc1CO/N=C(\OC)c1cc(C(F)(F)F)cc(C(F)(F)F)c1
Activity [2]: 90%

CO/N=C(/C1=NOCCO1)c1ccccc1CO/N=C(\OC)c1cc(C(F)(F)F)cc(C(F)(F)F)c1
Activity [6]: 100% | EC50 [7]: 0.9 µg/mL (≈ 1.73 µM) | EC90 [7]: 2 µg/mL (≈ 3.85 µM) | Activity [1]: 100% | Activity [8]: 100% | Activity [2]: 100% | Activity [9]: 70% | Activity [3]: 100% | Activity [10]: 90% | Activity [11]: 100% | EC50 [12]: 0.8 µg/mL (≈ 1.54 µM) | EC90 [12]: 1.5 µg/mL (≈ 2.89 µM) | EC50 [13]: 0.8 µg/mL (≈ 1.54 µM) | EC90 [13]: 1.6 µg/mL (≈ 3.08 µM) | Activity [4]: 95% | Activity [14]: 100% | Activity [15]: 80% | Activity [5]: 96% | Activity [16]: 75% | EC50 [17]: 1 µg/mL (≈ 1.93 µM) | EC90 [17]: 2.4 µg/mL (≈ 4.62 µM) | Activity [18]: 30% | Activity [19]: 35% | Activity [20]: 75% | Activity [21]: 98% | Activity [22]: 100% | Activity [23]: 100% | Activity [24]: 55% | Activity [25]: 60%

CO/N=C(/C(=O)OC)c1ccccc1CO/N=C(\OC)c1cc(C(F)(F)F)cc(C(F)(F)F)c1
Activity [1]: 100% | Activity [2]: 100% | Activity [3]: 100% | Activity [4]: 80% | Activity [5]: 98%

COC(=O)N(OC)c1ccccc1CO/N=C(\OC)c1cc(C(F)(F)F)cc(C(F)(F)F)c1
Activity [1]: 100% | Activity [2]: 100% | Activity [3]: 80% | Activity [4]: 10% | Activity [5]: 60%

CN/C(=N\OCc1ccccc1/C(=C\OC)C(=O)OC)c1cc(C(F)(F)F)cc(C(F)(F)F)c1
Activity [1]: 100% | Activity [2]: 100% | Activity [3]: 90% | Activity [4]: 25% | Activity [5]: 65%

CN/C(=N\OCc1ccccc1/C(=N\OC)C(=O)OC)c1cc(C(F)(F)F)cc(C(F)(F)F)c1
Activity [1]: 100% | Activity [2]: 100% | Activity [3]: 93% | Activity [4]: 70% | Activity [5]: 90%

CO/C=C(/C(=O)OC)c1ccccc1CO/N=C(\N)c1cc(C(F)(F)F)cc(C(F)(F)F)c1
Activity [1]: 95% | Activity [2]: 100% | Activity [3]: 90% | Activity [4]: 40% | Activity [5]: 75%

CO/N=C(/C(=O)OC)c1ccccc1CO/N=C(\N)c1cc(C(F)(F)F)cc(C(F)(F)F)c1
Activity [2]: 30%

CCO/C(=N\OCc1ccccc1/C(=N\OC)C(=O)OC)c1cc(C(F)(F)F)cc(C(F)(F)F)c1
Activity [1]: 100% | Activity [2]: 100% | Activity [3]: 80% | Activity [4]: 15% | Activity [5]: 50%

CCS/C(=N\OCc1ccccc1/C(=C\OC)C(=O)OC)c1cc(C(F)(F)F)cc(C(F)(F)F)c1
Activity [2]: 85%

CCS/C(=N\OCc1ccccc1/C(=N\OC)C(=O)OC)c1cc(C(F)(F)F)cc(C(F)(F)F)c1
Activity [2]: 85%

CO/C=C(/C(=O)OC)c1ccccc1CO/N=C(\SC(C)C)c1cc(C(F)(F)F)cc(C(F)(F)F)c1
Activity [2]: 85%

CO/N=C(/C(=O)OC)c1ccccc1CO/N=C(\SC(C)C)c1cc(C(F)(F)F)cc(C(F)(F)F)c1
Activity [2]: 85%

CO/C=C(/C(=O)OC)c1ccccc1CO/N=C(/c1cc(C(F)(F)F)cc(C(F)(F)F)c1)[S+](C)[O-] (stereo not given)
Activity [2]: 70%

CO/C=C(/C(=O)OC)c1ccccc1CO/N=C(/c1cc(C(F)(F)F)cc(C(F)(F)F)c1)S(C)(=O)=O
Activity [2]: 70%

CO/C=C(/C(=O)OC)c1ccccc1CO/N=C(\SC)c1cc(C(F)(F)F)cc(C(F)(F)F)c1
Activity [1]: 100% | Activity [2]: 100% | Activity [3]: 98% | Activity [4]: 75% | Activity [5]: 93%

CNC(=O)/C(=N/OC)c1ccccc1CO/N=C(\SC)c1cc(C(F)(F)F)cc(C(F)(F)F)c1
Activity [1]: 100% | Activity [2]: 100% | Activity [3]: 40% | Activity [5]: 25%

CO/N=C(/C1=NOCCO1)c1ccccc1CO/N=C(\SC)c1cc(C(F)(F)F)cc(C(F)(F)F)c1
Activity [1]: 100% | Activity [2]: 100% | Activity [3]: 20% | Activity [5]: 10%

CO/N=C(/C(=O)OC)c1ccccc1CO/N=C(\SC)c1cc(C(F)(F)F)cc(C(F)(F)F)c1
Activity [1]: 80% | Activity [2]: 100%

COC(=O)N(OC)c1ccccc1CO/N=C(\SC)c1cc(C(F)(F)F)cc(C(F)(F)F)c1
Activity [1]: 90% | Activity [2]: 90% | Activity [3]: 65% | Activity [5]: 30%

CO/C=C(/C(=O)OC)c1ccccc1CO/N=C(\OC)c1cc(C(F)(F)F)cc(C(F)(F)F)c1
Activity [6]: 100% | EC50 [7]: 1.2 µg/mL (≈ 2.44 µM) | EC90 [7]: 2.8 µg/mL (≈ 5.7 µM) | Activity [1]: 100% | Activity [8]: 100% | Activity [2]: 100% | Activity [9]: 50% | Activity [3]: 100% | Activity [10]: 82% | Activity [11]: 94% | EC50 [12]: 0.8 µg/mL (≈ 1.63 µM) | EC90 [12]: 1.4 µg/mL (≈ 2.85 µM) | EC50 [13]: 0.8 µg/mL (≈ 1.63 µM) | EC90 [13]: 1.5 µg/mL (≈ 3.05 µM) | Activity [4]: 98% | Activity [14]: 100% | Activity [15]: 92% | Activity [5]: 100% | Activity [16]: 80% | EC50 [17]: 1.5 µg/mL (≈ 3.05 µM) | EC90 [17]: 4.8 µg/mL (≈ 9.77 µM) | Activity [18]: 20% | Activity [19]: 20% | Activity [20]: 60% | Activity [21]: 81% | Activity [22]: 100% | Activity [23]: 100% | Activity [24]: 59% | Activity [25]: 56%

CO/N=C(\C(=O)OC)c1ccccc1CO/N=C(\C)c1cccc(C(F)(F)F)c1
Activity [1]: 100% | Activity [2]: 100% | Activity [3]: 100% | Activity [4]: 75% | Activity [5]: 98%

CNC(=O)/C(=N/OC)c1ccccc1Oc1ccccc1 [METOMINOSTROBIN]
Activity [1]: 100% | Activity [2]: 100% | Activity [3]: 95% | Activity [4]: 65% | Activity [5]: 85%
